Source: patent US12660819B2, “Herbicidal derivatives” (SYNGENTA CROP PROTECTION AG, priority 2020, dated 2026)

Tests used:
Assay type in all cases: in vivo
[1] = tested on: Echinochloa crus-galli (ECHCG); assay: Pre-emergence Test (glasshouse, percentage damage to the plant); conditions: 1000 g/ha unless otherwise stated; for percentage damage to the plant, ECHCG (five-point scale): Echinochloa crus-galli
[2] = tested on: Amaranthus retoflexus (AMARE); assay: as above; conditions: 1000 g/ha unless otherwise stated; for percentage damage to the plant, AMARE (five-point scale): Amaranthus retoflexus
[3] = tested on: Ipomoea hederacea (IPOHE); assay: as above; conditions: 1000 g/ha unless otherwise stated; for percentage damage to the plant, IPOHE (five-point scale): Ipomoea hederacea
[4] = tested on: Amaranthus palmeri (AMAPA); assay: Post-emergence Test (glasshouse, percentage damage to the plant); conditions: 1000 g/ha unless otherwise stated, evaluated after 13 days; for AMAPA, percentage damage caused to the plant (five-point scale): post-emergence
Outline: (§1)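 Sown pots; spray 1000 g/ha (unless stated) in acetone/water 50:50 + 0.5% Tween 20; glasshouse 24/16 °C, 14 h light, 65% RH; watered twice daily; % damage read at 13 days, scored 1–5.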

[5] = tested on: Ipomoea hederacea (IPOHE); assay: as above; conditions: 1000 g/ha unless otherwise stated, evaluated after 13 days; for IPOHE, percentage damage caused to the plant (five-point scale): post-emergence
Outline: (§2)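 Damage was rated 13 days after treatment and expressed on a five-point scale: 5=81-100%, 4=61-80%, 3=41-60%, 2=21-40%, 1=0-20%. Spray was applied at 1000 g/ha unless otherwise stated, from acetone/water (50:50) with 0.5% Tween 20, to sown pots.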

[6] = tested on: Amaranthus retoflexus (AMARE); assay: as above; conditions: 1000 g/ha unless otherwise stated, evaluated after 13 days; for AMARE, percentage damage caused to the plant (five-point scale): post-emergence
Outline: as §1

Setaria faberi (SETFA) [7] = assay: as above; conditions: 1000 g/ha unless otherwise stated, evaluated after 13 days; for SETFA, percentage damage caused to the plant (five-point scale): post-emergence
Outline: as §2

Zea mays (ZEAMX) [8] = assay: as above; conditions: 1000 g/ha unless otherwise stated, evaluated after 13 days; for ZEAMX, percentage damage caused to the plant (five-point scale): post-emergence
Outline: as §2

[9] = tested on: Echinochloa crus-galli (ECHCG); assay: as above; conditions: 1000 g/ha unless otherwise stated, evaluated after 13 days; for ECHCG, percentage damage caused to the plant (five-point scale): post-emergence
Outline: as §1

Zea mays (ZEAMX) [10] = assay: Pre-emergence Test (glasshouse, percentage damage to the plant); conditions: 1000 g/ha unless otherwise stated; for percentage damage to the plant, ZEAMX (five-point scale): Zea mays
Setaria faberi (SETFA) [11] = assay: as above; conditions: 1000 g/ha unless otherwise stated; for percentage damage to the plant, SETFA (five-point scale): Setaria faberi
[12] = tested on: Amaranthus palmeri (AMAPA); assay: as above; conditions: 1000 g/ha unless otherwise stated; for percentage damage to the plant, AMAPA (five-point scale): Amaranthus palmeri

SMILES | percentage damage to the plant, ECHCG (five-point scale) [1] | percentage damage to the plant, AMARE (five-point scale) [2] | percentage damage to the plant, IPOHE (five-point scale) [3] | AMAPA, percentage damage caused to the plant (five-point scale) [4] | IPOHE, percentage damage caused to the plant (five-point scale) [5] | AMARE, percentage damage caused to the plant (five-point scale) [6] | SETFA, percentage damage caused to the plant (five-point scale) (Setaria faberi (SETFA) [7]) | ZEAMX, percentage damage caused to the plant (five-point scale) (Zea mays (ZEAMX) [8]) | ECHCG, percentage damage caused to the plant (five-point scale) [9] | percentage damage to the plant, ZEAMX (five-point scale) (Zea mays (ZEAMX) [10]) | percentage damage to the plant, SETFA (five-point scale) (Setaria faberi (SETFA) [11]) | percentage damage to the plant, AMAPA (five-point scale) [12] | other results
CCn1c(C)c(-c2ccc(F)cc2OC)c(=O)c(C(=O)OC)c1-c1ccc(Cl)c(Cl)c1 [Compound 163, methyl 2-(3,4-dichlorophenyl)-1-ethyl-5-(4-fluoro-2-methoxy-phenyl)-6-methyl-4-oxo-pyridine-3-carboxylate] |  |  |  |  |  |  |  |  |  |  |  |  | percentage damage to the plant, ECHCG ([1]; five-point scale): 0; percentage damage to the plant, AMARE ([2]; five-point scale): 1 (1=0-20%); percentage damage to the plant, IPOHE ([3]; five-point scale): 0; Post-emergence Test AMAPA, percentage damage to the plant (five-point scale) ([4]; post-emergence spray): 2 (2=21-40%); Post-emergence Test IPOHE, percentage damage to the plant (five-point scale) ([5]; post-emergence spray): 0; Post-emergence Test AMARE, percentage damage to the plant (five-point scale) ([6]; post-emergence spray): 1 (1=0-20%); Post-emergence Test SETFA, percentage damage to the plant (five-point scale) (Setaria faberi (SETFA) [7]; post-emergence spray): 0; Post-emergence Test ZEAMX, percentage damage to the plant (five-point scale) (Zea mays (ZEAMX) [8]; post-emergence spray): 0; Post-emergence Test ECHCG, percentage damage to the plant (five-point scale) ([9]; post-emergence spray): 0; percentage damage to the plant, ZEAMX (Zea mays (ZEAMX) [10]; five-point scale): 1 (1=0-20%); percentage damage to the plant, SETFA (Setaria faberi (SETFA) [11]; five-point scale): 0; percentage damage to the plant, AMAPA ([12]; five-point scale): 1 (1=0-20%)
CCn1c(C)c(-c2cc(C(F)(F)F)ccc2F)c(=O)c(C(=O)O)c1-c1ccc(Cl)c(Cl)c1 [Compound 206, 2-(3,4-dichlorophenyl)-1-ethyl-5-[2-fluoro-5-(trifluoromethyl)phenyl]-6-methyl-4-oxo-pyridine-3-carboxylic acid] | 2 (2=21-40%) | 2 (2=21-40%) | 3 (3=41-60%) | 4 (4=61-80%) | 2 (2=21-40%) | 4 (4=61-80%) | 4 (4=61-80%) | 1 (1=0-20%) | 2 (2=21-40%) | 0 | 5 (5=81-100%) | 4 (4=61-80%) | 
CCn1c(C)c(-c2cccc(C(F)(F)F)c2F)c(=O)c(C(=O)O)c1-c1ccc(Cl)c(Cl)c1 [Compound 207, 2-(3,4-dichlorophenyl)-1-ethyl-5-[2-fluoro-3-(trifluoromethyl)phenyl]-6-methyl-4-oxo-pyridine-3-carboxylic acid] | 2 (2=21-40%) | 3 (3=41-60%) | 3 (3=41-60%) | 3 (3=41-60%) | 4 (4=61-80%) | 3 (3=41-60%) | 4 (4=61-80%) | 3 (3=41-60%) | 4 (4=61-80%) | 1 (1=0-20%) | 5 (5=81-100%) | 3 (3=41-60%) | 
CCn1c(C)c(-c2ccc(Cl)cc2)c(=O)c(C(=O)O)c1-c1cnc(Cl)c(Cl)c1 [Compound 208, 5-(4-chlorophenyl)-2-(5,6-dichloro-3-pyridyl)-1-ethyl-6-methyl-4-oxo-pyridine-3-carboxylic acid] | 1 (1=0-20%) | 1 (1=0-20%) | 2 (2=21-40%) | 4 (4=61-80%) | 2 (2=21-40%) | 4 (4=61-80%) | 5 (5=81-100%) | 4 (4=61-80%) | 3 (3=41-60%) | 0 | 2 (2=21-40%) | 5 (5=81-100%) | 
CCn1c(C)c(-c2ccc(F)cc2F)c(=O)c(C(=O)OC)c1-c1cnc(Cl)c(Cl)c1 [Compound 213, methyl 2-(5,6-dichloro-3-pyridyl)-5-(2,4-difluorophenyl)-1-ethyl-6-methyl-4-oxo-pyridine-3-carboxylate] | 0 | 0 | 0 | 3 (3=41-60%) | 1 (1=0-20%) |  | 0 | 1 (1=0-20%) | 0 | 0 | 0 | 0 | 
CCn1c(C)c(-c2cc(C)nn2C)c(=O)c(C(=O)O)c1-c1ccc(Cl)c(Cl)c1 [Compound 240, 2-(3,4-dichlorophenyl)-5-(2,5-dimethylpyrazol-3-yl)-1-ethyl-6-methyl-4-oxo-pyridine-3-carboxylic acid] | 3 (3=41-60%) | 0 | 1 (1=0-20%) | 4 (4=61-80%) | 4 (4=61-80%) | 3 (3=41-60%) | 4 (4=61-80%) | 1 (1=0-20%) |  | 0 | 5 (5=81-100%) | 0 | 
CCn1c(C)c(-c2ccnn2C)c(=O)c(C(=O)O)c1-c1ccc(Cl)c(Cl)c1 [Compound 241, 2-(3,4-dichlorophenyl)-1-ethyl-6-methyl-5-(2-methylpyrazol-3-yl)-4-oxo-pyridine-3-carboxylic acid] | 5 (5=81-100%) | 3 (3=41-60%) | 3 (3=41-60%) | 5 (5=81-100%) | 3 (3=41-60%) | 5 (5=81-100%) | 4 (4=61-80%) | 3 (3=41-60%) |  | 1 (1=0-20%) | 5 (5=81-100%) | 2 (2=21-40%) | 
CCn1c(C)c(-c2ccc(Cl)cc2F)c(=O)c(C(=O)OC)c1-c1cnc(Cl)c(Cl)c1 [Compound 282, methyl 5-(4-chloro-2-fluoro-phenyl)-2-(5,6-dichloro-3-pyridyl)-1-ethyl-6-methyl-4-oxo-pyridine-3-carboxylate] | 1 (1=0-20%) | 3 (3=41-60%) | 0 | 4 (4=61-80%) | 2 (2=21-40%) | 4 (4=61-80%) | 1 (1=0-20%) | 3 (3=41-60%) | 4 (4=61-80%) |  | 1 (1=0-20%) | 4 (4=61-80%) | 
